Assay results as given in patent US20210122730A1, “GLUCOCORTICOID RECEPTOR MODULATORS” (ORIC Pharmaceuticals, Inc., priority 2017, published 2021).

Key:
CYP2C8 = target: T1, CYP2C8 (Homo sapiens, UniProt P10632); assay: CYP Inhibition Assay (CYP2C8, human liver microsomes, paclitaxel substrate); type: in vitro ADME; details: pH 7.4; pooled human liver microsomes 0.1 mg/mL, probe substrate paclitaxel
T1 construct: Pooled human microsomes were obtained from Sekisui XenoTech, KS; tissue Sekisui XenoTech, KS; host or cells: pooled human liver microsomes
T1 sequence (P10632 1-490): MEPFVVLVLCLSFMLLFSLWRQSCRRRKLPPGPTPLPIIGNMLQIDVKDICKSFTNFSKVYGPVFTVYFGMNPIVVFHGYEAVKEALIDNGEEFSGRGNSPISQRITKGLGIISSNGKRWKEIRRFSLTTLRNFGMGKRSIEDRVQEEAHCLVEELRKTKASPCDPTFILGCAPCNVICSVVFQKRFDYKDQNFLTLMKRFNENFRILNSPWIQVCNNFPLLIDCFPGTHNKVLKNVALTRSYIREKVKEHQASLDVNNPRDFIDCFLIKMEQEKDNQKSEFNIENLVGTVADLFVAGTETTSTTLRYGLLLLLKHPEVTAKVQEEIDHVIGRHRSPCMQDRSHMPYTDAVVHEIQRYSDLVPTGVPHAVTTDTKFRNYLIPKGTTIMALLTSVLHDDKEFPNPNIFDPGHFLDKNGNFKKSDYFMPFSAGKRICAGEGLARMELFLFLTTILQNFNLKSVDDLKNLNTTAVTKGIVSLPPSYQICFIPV
Procedure, shortened: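 Pooled human liver microsomes (0.1 mg/mL) in 50 mM potassium phosphate pH 7.4 with compound, started with 1 mM NADPH, 5 min at 37° C, duplicate.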

GR = target: T2, GR (Homo sapiens, UniProt P04150); assay: In Vitro GR Luciferase Reporter Assay (antagonist mode, CHO-K1-GR-MMTV-Luc reporter cells); type: cell-based; details: antagonist mode, 10 nM Dexamethasone
T2 construct: expressed in transfected cells; host or cells: CHO-K1
T2 sequence (P04150 1-777): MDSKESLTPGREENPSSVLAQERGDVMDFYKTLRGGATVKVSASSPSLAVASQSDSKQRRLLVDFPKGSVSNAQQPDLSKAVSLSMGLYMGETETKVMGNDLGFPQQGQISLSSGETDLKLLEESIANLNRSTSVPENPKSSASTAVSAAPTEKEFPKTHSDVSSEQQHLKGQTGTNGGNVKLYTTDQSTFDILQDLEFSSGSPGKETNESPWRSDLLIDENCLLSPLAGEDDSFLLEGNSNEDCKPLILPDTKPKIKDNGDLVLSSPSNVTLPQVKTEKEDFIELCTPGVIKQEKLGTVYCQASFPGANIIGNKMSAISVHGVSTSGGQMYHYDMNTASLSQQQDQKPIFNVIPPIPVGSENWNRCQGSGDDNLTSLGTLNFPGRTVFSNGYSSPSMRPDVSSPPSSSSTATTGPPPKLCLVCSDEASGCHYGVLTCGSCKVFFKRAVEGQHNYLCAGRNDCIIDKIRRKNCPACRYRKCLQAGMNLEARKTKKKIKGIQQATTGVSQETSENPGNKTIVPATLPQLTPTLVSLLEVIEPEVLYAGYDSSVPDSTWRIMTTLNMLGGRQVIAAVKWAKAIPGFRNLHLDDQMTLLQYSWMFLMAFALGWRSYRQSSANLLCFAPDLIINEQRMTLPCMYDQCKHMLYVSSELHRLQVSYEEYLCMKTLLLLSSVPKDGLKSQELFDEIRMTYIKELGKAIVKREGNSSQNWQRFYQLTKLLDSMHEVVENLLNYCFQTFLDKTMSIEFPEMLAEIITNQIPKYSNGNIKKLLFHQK
Procedure, shortened: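 CHO-K1-GR-MMTV-Luc cells in phenol red-free DMEM with 10% CSS, stimulated with 10 nM dexamethasone (final) and treated with 8-point 1:5 compound dilutions for about 18-24 h at 37° C. Luciferase measured by OneGlo luminescence; IC50 derived for inhibition of GR activity.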

Structure (SMILES)	inhibition at 5 min (CYP2C8)	IC50 (GR)
Cn1cnc(S(=O)(=O)N(CC(F)(F)F)[C@H]2CCC3=Cc4c(cnn4-c4ccc(F)cc4)C[C@]3(C(=O)c3ncc(C(F)(F)F)s3)C2)n1 [Example 367, N-((4aS,6S)-1-(4-fluorophenyl)-4a-(5-(trifluoromethyl)thiazole-2-carbonyl)-4,4a,5,6,7,8-hexahydro-1H-benzo[f]indazol-6-yl)-1-methyl-N-(2,2,2-trifluoroethyl)-1H-1,2,4-triazole-3-sulfonamide]	25 to 50%	≤ 100 nM
Cn1ccc(S(=O)(=O)N([C@H]2CCC3=Cc4c(cnn4-c4ccc(F)cc4)C[C@]3(C(=O)c3ncc(C(F)(F)F)s3)C2)[C@H]2C[C@@](O)(C(F)(F)F)C2)n1 [Example 368, N-((4aS,6S)-1-(4-fluorophenyl)-4a-(5-(trifluoromethyl)thiazole-2-carbonyl)-4,4a,5,6,7,8-hexahydro-1H-benzo[f]indazol-6-yl)-N-((1r,3S)-3-hydroxy-3-(trifluoromethyl)cyclobutyl)-1-methyl-1H-pyrazole-3-sulfonamide]	25 to 50%	≤ 100 nM
Cn1cnc(S(=O)(=O)[C@H]2CCC3=Cc4c(cnn4-c4ccc(F)cc4)C[C@]3(C(=O)c3ccc(C(F)(F)F)cn3)C2)n1 [Example 374, ((4aS,6S)-1-(4-fluorophenyl)-6-((1-methyl-1H-1,2,4-triazol-3-yl)sulfonyl)-1,4,5,6,7,8-hexahydro-4aH-benzo[f]indazol-4a-yl)(5-(trifluoromethyl)pyridin-2-yl)methanone]	≤ 25%	≤ 100 nM

Continued, values first:

inhibition at 5 min (CYP2C8)	IC50 (GR)	Structure (SMILES)
25 to 50%	≤ 100 nM	CO[C@]1(C)C[C@H](N([C@H]2CCC3=Cc4c(cnn4-c4ccc(F)cc4)C[C@]3(C(=O)c3cc(F)ccn3)C2)S(=O)(=O)c2ccn(C)n2)C1 [Example 371, N-((4aS,6S)-1-(4-fluorophenyl)-4a-(4-fluoropicolinoyl)-4,4a,5,6,7,8-hexahydro-1H-benzo[f]indazol-6-yl)-N-((1s,3R)-3-methoxy-3-methylcyclobutyl)-1-methyl-1H-pyrazole-3-sulfonamide]
50 to 75%	≤ 100 nM	Cn1cc(S(=O)(=O)N(CC(F)F)[C@H]2CCC3=Cc4c(cnn4-c4ccc(F)cc4)C[C@]3(C(=O)c3cc(F)ccn3)C2)nn1 [Example 373, N-(2,2-difluoroethyl)-N-((4aS,6S)-1-(4-fluorophenyl)-4a-(4-fluoropicolinoyl)-4,4a,5,6,7,8-hexahydro-1H-benzo[f]indazol-6-yl)-1-methyl-1H-1,2,3-triazole-4-sulfonamide]
25 to 50%	≤ 100 nM	Cn1cnc(S(=O)(=O)CC2CCC3=Cc4c(cnn4-c4ccc(F)cc4)C[C@]3(C(=O)c3cc(C(F)(F)F)ccn3)C2)n1 (stereo partly drawn) [Example 377, ((4aR)-1-(4-fluorophenyl)-6-(((1-methyl-1H-1,2,4-triazol-3-yl)sulfonyl)methyl)-1,4,5,6,7,8-hexahydro-4aH-benzo[f]indazol-4a-yl)(4-(trifluoromethyl)pyridin-2-yl)methanone]
